Experimental findings from US4051244A, “2,4-Diamino 5-bromo 6-chloro pyrimidines, process for their preparation and use as pharmaceuticals” (Mar-Pha Societe d'Etudes et d'Exploitation de Marques, priority 1975, dated 1977) are described below.

The test system of data set [1] is isolated duodenum, spasms induced by acetylcholine. The experiment in a line: Spasms of the isolated duodenum of a rat induced by acetylcholine (neurotropic). The following applies: for spasmolytic effects, both musculotropic and neurotropic (in words): acetylcholine and barium chloride. The source says:
(§1) The anti-spasmodic properties of the compounds according to the invention are shown by use of the technique of Magnus, R. (Ges. Physiol. 102, 123, 1904) in connection with the spasms of the isolated duodenum of a rat caused by either acetylcholine to research an effect of neurotropic type or by barium chloride to research an effect of musculotropic type.
(§2) The results, shown hereunder, are expressed by a CE 50 which represents the concentration of product in mg/1 capable of decreasing by 50% the amplitude of spasms thus induced.

The test system of data set [2] is ulcer induced by reserpine. As to the kind of experiment: Protection against the ulcer induced by reserpine in a rat, acute oral. To be noted: for ED50: po, read-out: DA 50, dose protecting 50% of the animals against the ulcer induced by reserpine in a rat; for antiulcer properties (in words): p.o., reserpine and constraint ulcer. In kind it is in vivo, rat CD (Charles River). The text has this:
(§3) The anti-ulcer properties of the products according to the invention are shown in the rat CD (Charles River) by acute oral administration using two techniques.
The first technique studies the activity of the product in connection with the experimental ulcer induced by […] according to Brodie, D. A. (Gastroenterology, 43, 675, 1962). The result is expressed by a DA 50 which represents the dose in mg/kg capable of protecting 50% of the animals against the least trace of ulceration of the mucous gastric system.

Data set [3] has as its system isolated uterus, spasms induced by serotonine. As to the kind of experiment: Spasms of isolated uterus of rat induced by serotonine. Further details: species or system rat CD (Charles River). The following applies: for CE 50, spasms of isolated uterus of rat induced by serotonine: in vitro. The text has this:
(§4) The anti-serotonine properties of the compounds according to the invention are shown in vitro and in vivo.
In vitro, the action of the products on the spasms induced by the serotonine in the isolated uterus of a rat (rat CD Charles River) is shown, according to the technique of Fanchamps, A., Doepfner, W., Weidman, H. and Cerletti, (A. Schw. Med. Worsch. 90, 1040, 1960). The results, shown in the table hereunder, are expressed by a CE 50 which represents the concentration in mg/1 of the product capable of decreasing by 50% the amplitude of spasms induced by the serotonine.

Data set [4] in a line: LD 50 in the mouse, oral (cumulative method of Reed and Muench). The following applies: in vivo. As to the method: (§5) The toxicities of the products according to the invention have been determined on the mouse CD 1 (Charles River) by intravenous and oral methods. The lethal doses 50% (LD 50) are calculated by the cumulative method of Reed J. J. and Muench, H. (Am. J. Hyg. 27, 493, 1938).

Data set [5] in a line: LD 50 in the mouse, intravenous (cumulative method of Reed and Muench). The following applies: in vivo. Here is the method:
as §5

Data set [6] has as its system isolated duodenum, spasms induced by barium chloride. As to the kind of experiment: Spasms of the isolated duodenum of a rat induced by barium chloride (musculotropic).
Excerpt: as §1, §2

Data set [7] has as its system bronchospasms induced by serotonine. As to the kind of experiment: Bronchospasms using serotonine in guinea pigs, intravenous. To be noted: Cavia porcellus, i.v., anesthesized guinea-pigs, read-out: DE 50, dose reducing by 50% the amplitude of bronchospasms using serotonine in guinea pigs. In kind it is in vivo, Albinos Hartley guinea-pigs.
Excerpt: as §4
In vivo, the products are applied by intra-venous way to anesthesized Albinos Hartley guinea-pigs. A method originated from Konzett, H. and Rossler, R. is employed (Naunyn. Schmiedeberg's Arch. exp. Path. Pharmakol, 195, 71, 1940). The results, shown in the table hereunder, are expressed by a DE 50 which represents the dose capable of reducing by 50% the amplitude of bronchospasms induced by the administration of serotonine.

The test system of data set [8] is vomitings induced by apomorphine. The experiment in a line: Anti-emetic test: vomitings induced by apomorphine in the dog, oral. The data set is classed as in vivo. To be noted: mongrel dog; for ED50: Canis lupus familiaris, read-out: DE 50, dose diminishing by 50% the number of vomitings induced by apomorphine. The text has this:
The anti-emetic properties of the compounds according to the invention are shown by oral way in the mongrel dog in tests in which vomitings are induced by apomorphine according to Chen, G. and Ensor, C. (J. Pharmacol exp. Ther. 98, 24, 1950).
The results are expressed by a DE 50 which represents the dose of product capable of diminishing by 50% the number of vomitings induced by the agent.

The subject of data set [9] is cerebral phosphodiesterases. The experiment in a line: Inhibition of the phosphodiesterases of the brain. The data set is classed as biochemical, rat CD (Charles River). The text has this:
The phosphodiesterasic activity is shown by the method of Kukovetz E. R. and Poech, G. (Arch. Pharmakol. 1970, 267, 189) by utilizing the supernatant part obtained after centrifugation at 10,000 G of the brain of male rats CD (Charles River).
The inhibiting action of the compounds according to the invention on the cerebral phosphodiesterases has been tested and expressed by an inhibiting concentration 50% (CI 50) in micromoles.

For the next data set, the system named is constraint ulcer. As to the kind of experiment: Protection against constraint ulcer, acute oral. The data set is classed as in vivo, rat CD (Charles River). To be noted: p.o., rat, 24 hours constraint, read-out: DE 50, dose decreasing by 50% the ulcerating effect (constraint ulcer).
Excerpt: as §3
The second studies the activity of the product in connection with the constraint ulcer according to Rossi, G., Bonfils, S., Leifooche, G. and Lambling A. (C.R. Soc. Biol. 150, 2124, 1956). The result is expressed by a DE 50 which represents the dose of the substance in mg/kg capable of decreasing by 50% the ulcerating effect caused by the 24 hours constraint.

As to `CN1CCN(c2nc(N)nc(Cl)c2Br)CC1` [Example 6], the “CE 50, concentration decreasing by 50% the amplitude of spasms induced by acetyl-choline” value in data set [1] amounted to 4 mg/L. Moreover, in [1], the “spasmolytic effects, both musculotropic and neurotropic (in words)” value (“spasmolytic effects” below) was “very interesting”. The ED50 in data set [2] is above 100 mg/kg. Also, the “CE 50, spasms of isolated uterus of rat induced by serotonine” value (“CE 50, spasms” for short) in [3] was 0.05 mg/L. For the same compound, the median lethal dose (LD50) (in general, the dose expected to kill half of the subjects tested) in [4] was determined as 600 mg/kg; in data set [5] it was 48 mg/kg. For the same compound, the “CE 50, concentration decreasing by 50% the amplitude of spasms induced by barium chloride” value in [6] turned out to be 0.2 mg/L.
Turning to `Cc1ccc(N(C)c2nc(Cl)c(Br)c(NCCN(C(C)C)C(C)C)n2)cc1` [Example 9], in [2], the ED50 amounted to 300 mg/kg. Moreover, the “CE 50, spasms” value in [3] came out at 0.33 mg/L. The compound further gave an LD50 in data set [4] of 675 mg/kg.
Consider `Cc1ccc(N(C)c2nc(Cl)c(Br)c(N3CCN(C)CC3)n2)cc1` [Example 7], for which, in [1], the “CE 50, concentration decreasing by 50% the amplitude of spasms induced by acetyl-choline” value came to 1.4 mg/L; the “spasmolytic effects” value is reported as “very interesting”. The ED50 in [2] is above 100 mg/kg. Moreover, the “CE 50, spasms” value in [3] is 0.05 mg/L. The compound also showed an LD50 in data set [4] above 900 mg/kg. The compound further showed an LD50 in data set [5] of 83 mg/kg. Besides, the “CE 50, concentration decreasing by 50% the amplitude of spasms induced by barium chloride” value in data set [6] came out at 0.6 mg/L.
Regarding `CNc1nc(Cl)c(Br)c(N2CCN(C)CC2)n1` [Example 1, 2-methylamino-4-(N-methylpiperazinyl) 5-bromo 6-chloro pyrimidine], the ED50 in data set [7] amounted to 0.08 mg/kg; in [8], 1 mg/kg. In addition, the median lethal dose (LD50) was found to be 100 mg/kg in data set [4] and 55 mg/kg in data set [5].
Regarding `CC(C)Nc1nc(N2CCN(C)CC2)nc(Cl)c1Br` [Example 2, 2-(N-methylpiperazinyl) 4,isopropylamino 5-bromo 6-chloro pyrimidine], the figures for the ED50 in [7], in [2] and in [8] were 0.45 mg/kg, 100 mg/kg and above 5 mg/kg, respectively. Further, the “CE 50, concentration decreasing by 50% the amplitude of spasms induced by acetyl-choline” value in data set [1] was found to be 5.5 mg/L. Besides, the “antiulcer properties (in words)” value in data set [2] was “outstanding antiulcer properties”. For the same compound, the “inhibiting action on the cerebral phosphodiesterases (in words)” value in [9] (rat brain supernatant) is given as “interesting inhibiting action”. In addition, the IC50 in data set [9] (supernatant of brain of male rats, 10,000 G, read-out: CI 50, inhibiting concentration 50% on the cerebral phosphodiesterases) was 40 µM. Also, the “CE 50, spasms” value in data set [3] was 0.07 mg/L. Also, the LD50 in [4] was determined as 675 mg/kg; in data set [5], 83 mg/kg. Further, the “CE 50, concentration decreasing by 50% the amplitude of spasms induced by barium chloride” value in data set [6] was 3 mg/L.
For `CC(C)Nc1nc(Cl)c(Br)c(N2CCN(C)CC2)n1` [Example 3], the ED50 amounted to 0.85 mg/kg in [7], 20 mg/kg in data set [2], 1.4 mg/kg in data set [8] and 12 mg/kg in the data set on constraint ulcer. In addition, the “CE 50, concentration decreasing by 50% the amplitude of spasms induced by acetyl-choline” value in [1] stood at 1.8 mg/L. The “spasmolytic effects” value in data set [1] was “very interesting”. In addition, the “antiulcer properties (in words)” value in data set [2] is on record as “outstanding antiulcer properties”. For the same compound, the “anti-emetic activity (in words)” value in data set [8] (apomorphine) is “very important anti-emetic activity”. The “anti-serotonine activity (in words)” value in data set [3] (in vitro (rat uterus) and in vivo (guinea pig)) was “very high anti-serotonine activity”. Besides, the “CE 50, spasms” value in data set [3] was 0.004 mg/L. Also, the median lethal dose (LD50) in data set [4] stood at 200 mg/kg; in data set [5], 86 mg/kg. The “CE 50, concentration decreasing by 50% the amplitude of spasms induced by barium chloride” value in data set [6] was found to be 0.6 mg/L.
Turning to `CCCCCCCNc1nc(Cl)c(Br)c(N2CCN(C)CC2)n1` [Example 4], in data set [1], the “CE 50, concentration decreasing by 50% the amplitude of spasms induced by acetyl-choline” value is 1.4 mg/L; the “spasmolytic effects” value is “very interesting”. Also, the ED50 in data set [2] was above 100 mg/kg. In [3], the “CE 50, spasms” value was determined as 0.35 mg/L. This compound registered an LD50 in data set [4] above 900 mg/kg. For the same compound, the “CE 50, concentration decreasing by 50% the amplitude of spasms induced by barium chloride” value in [6] was 1.3 mg/L.
